Paper PMC4013053, “Identification of Selective Small Molecule Inhibitors of the Nucleotide-Binding Oligomerization Domain 1 (NOD1) Signaling Pathway” (PLoS ONE, 2014)

Tests used:
EPHB2 = molecular target: T1, EPHB2 (Homo sapiens, UniProt P29323); test: Kinase activity panel: EPHB2; assay type: biochemical; conditions: 1 µM compound, 10 µM ATP
T1 construct: purchased Reaction Biology Corp
T1 sequence (P29323 19-1055): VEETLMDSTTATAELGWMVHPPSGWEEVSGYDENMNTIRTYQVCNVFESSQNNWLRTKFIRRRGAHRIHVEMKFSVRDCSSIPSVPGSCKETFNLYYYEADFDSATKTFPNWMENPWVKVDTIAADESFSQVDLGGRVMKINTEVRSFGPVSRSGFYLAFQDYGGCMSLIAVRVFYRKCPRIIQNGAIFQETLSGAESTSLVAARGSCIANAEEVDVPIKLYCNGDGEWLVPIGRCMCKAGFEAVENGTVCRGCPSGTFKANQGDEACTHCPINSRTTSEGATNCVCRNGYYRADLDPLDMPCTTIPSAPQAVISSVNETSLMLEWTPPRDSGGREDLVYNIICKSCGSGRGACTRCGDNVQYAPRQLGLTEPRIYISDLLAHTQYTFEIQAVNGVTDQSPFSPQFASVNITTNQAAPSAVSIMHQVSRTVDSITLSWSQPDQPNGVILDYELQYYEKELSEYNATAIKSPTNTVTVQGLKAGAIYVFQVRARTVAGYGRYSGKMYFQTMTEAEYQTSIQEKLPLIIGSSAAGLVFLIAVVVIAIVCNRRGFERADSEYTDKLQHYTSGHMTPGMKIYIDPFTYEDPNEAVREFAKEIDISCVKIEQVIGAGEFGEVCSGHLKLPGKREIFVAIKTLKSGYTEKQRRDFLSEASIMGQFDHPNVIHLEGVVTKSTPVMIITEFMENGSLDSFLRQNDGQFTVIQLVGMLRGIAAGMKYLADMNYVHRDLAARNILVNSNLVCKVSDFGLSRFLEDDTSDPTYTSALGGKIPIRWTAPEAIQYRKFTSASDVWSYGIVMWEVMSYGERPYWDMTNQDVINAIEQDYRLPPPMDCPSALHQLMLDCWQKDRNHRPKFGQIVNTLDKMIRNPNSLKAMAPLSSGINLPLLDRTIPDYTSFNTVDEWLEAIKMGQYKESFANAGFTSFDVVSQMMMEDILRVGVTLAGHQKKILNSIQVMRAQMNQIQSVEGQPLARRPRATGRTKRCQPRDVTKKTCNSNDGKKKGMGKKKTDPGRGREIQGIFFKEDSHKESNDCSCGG
Description: The compounds were tested in duplicate at 1 µM with a 20-minute pre-incubation with enzyme followed by addition of 10 µM ATP.

NOD2 = NOD2 (Homo sapiens, UniProt Q9HC29); test: MDP-stimulated IL-8 secretion in primary human monocytes; assay type: cell-based; parameters: Monocytes were purified from heparinized human whole blood; endogenous in cells; host or cells: primary human blood monocytes
Description: Monocytes were purified from heparinized human whole blood by centrifugation on Ficoll (Histopaque 1077) followed by Percoll gradients. Monocyte purity was >95% by morphological assessment of Wright’s stained cytospins. Cells were seeded at 100,000 per well in 96-well plates in RPMI containing 10%HI-FBS, pre-incubated for 1 hour with compounds, and then stimulated with either 25 µg/mL Tri-DAP or 1 µg/mL MDP. The concentration of IL-8 in medium samples collected after 24-hour treatment was determined by HTRF whereas IL-1β, IL-6 and TNFα were measured using the MS6000 human pro-inflammatory-4 II tissue culture kit (Meso Scale Discovery).

NOD2, sequence (Q9HC29 whole entry): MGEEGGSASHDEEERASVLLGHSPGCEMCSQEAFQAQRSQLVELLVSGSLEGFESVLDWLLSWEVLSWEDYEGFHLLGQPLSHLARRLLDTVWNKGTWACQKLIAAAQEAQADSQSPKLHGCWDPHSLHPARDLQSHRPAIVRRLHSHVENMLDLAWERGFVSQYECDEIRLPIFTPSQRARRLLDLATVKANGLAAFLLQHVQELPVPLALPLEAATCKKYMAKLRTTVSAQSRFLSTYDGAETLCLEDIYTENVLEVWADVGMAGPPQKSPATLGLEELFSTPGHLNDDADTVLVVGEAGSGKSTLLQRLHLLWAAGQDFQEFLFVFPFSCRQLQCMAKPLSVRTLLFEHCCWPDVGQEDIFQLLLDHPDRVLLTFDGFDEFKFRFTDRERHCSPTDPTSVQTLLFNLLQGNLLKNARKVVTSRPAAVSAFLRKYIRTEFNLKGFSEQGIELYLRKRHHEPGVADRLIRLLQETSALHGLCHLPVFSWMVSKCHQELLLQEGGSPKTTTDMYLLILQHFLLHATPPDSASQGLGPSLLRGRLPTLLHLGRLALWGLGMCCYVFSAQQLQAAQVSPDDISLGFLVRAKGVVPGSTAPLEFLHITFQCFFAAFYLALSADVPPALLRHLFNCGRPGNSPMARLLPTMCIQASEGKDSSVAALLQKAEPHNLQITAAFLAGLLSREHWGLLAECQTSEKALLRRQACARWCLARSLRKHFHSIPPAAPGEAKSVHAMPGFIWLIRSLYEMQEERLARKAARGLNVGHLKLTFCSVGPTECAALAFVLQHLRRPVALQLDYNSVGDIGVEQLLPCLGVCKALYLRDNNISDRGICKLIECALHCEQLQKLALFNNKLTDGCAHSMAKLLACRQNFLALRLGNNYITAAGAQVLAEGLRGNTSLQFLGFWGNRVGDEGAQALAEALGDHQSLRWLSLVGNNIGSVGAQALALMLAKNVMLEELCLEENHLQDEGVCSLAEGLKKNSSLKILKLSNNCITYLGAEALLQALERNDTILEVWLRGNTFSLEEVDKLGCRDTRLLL

decrease of EPHB2 activity (EPHB2)	effect on MDP induced IL-8 secretion (NOD2)	SMILES
51%		Cn1c(=O)[nH]c(=O)c2c1nc(CCSc1ccccc1)n2Cc1ccccc1 [SB711]
	did not inhibit	Cc1nc2ccccc2c(=O)n1-c1ccc(Cl)c(NS(=O)(=O)c2ccccc2F)c1 [Compound 22]
